The test has as its target T1, P2X7 (UniProt Q99572).
T1 sequence (Q99572 1-595): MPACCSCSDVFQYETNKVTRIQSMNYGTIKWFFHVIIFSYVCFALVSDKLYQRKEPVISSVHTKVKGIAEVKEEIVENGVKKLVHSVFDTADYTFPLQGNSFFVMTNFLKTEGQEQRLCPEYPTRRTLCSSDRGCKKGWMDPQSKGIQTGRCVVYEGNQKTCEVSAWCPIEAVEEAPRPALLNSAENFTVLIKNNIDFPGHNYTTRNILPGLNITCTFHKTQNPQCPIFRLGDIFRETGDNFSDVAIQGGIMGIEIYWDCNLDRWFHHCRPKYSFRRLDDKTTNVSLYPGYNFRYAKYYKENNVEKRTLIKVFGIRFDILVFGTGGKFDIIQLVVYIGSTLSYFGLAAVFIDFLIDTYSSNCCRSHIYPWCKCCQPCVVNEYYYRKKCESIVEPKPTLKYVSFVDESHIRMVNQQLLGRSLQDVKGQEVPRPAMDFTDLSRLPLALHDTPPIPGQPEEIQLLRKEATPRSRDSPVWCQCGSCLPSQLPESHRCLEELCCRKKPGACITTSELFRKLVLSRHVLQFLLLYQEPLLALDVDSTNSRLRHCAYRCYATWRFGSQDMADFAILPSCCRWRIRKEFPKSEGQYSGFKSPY
The test can be described thus: P2X7 activity of Table 1. Format: cell-based. The settings on record: pIC50 values for P2X7. The essentials: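 FLIPR calcium flux with fluo-3 in 1321N1 cells expressing human P2X7 and HEK293 cells expressing rat P2X7, in HBSS with 2 mM CaCl2 and 2.5 mM probenecid. Antagonist pre-incubated 20 min at room temperature, then BzATP added (100 μM human, 5 μM rat). Peak response over 5 min normalised to 5 μM ionomycin.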

Usually pIC50 stands for the IC50 on a negative log10 scale, so that one unit is a factor of ten. A high value points to a small IC50.

On to `CN1C=C(C(=O)Nc2cc(-n3ncccc3=O)ccc2F)[C@H](c2ccc(F)cc2)CC1=O` [Compound 146, (S)-4-(4-Fluoro-phenyl)-1-methyl-6-oxo-1,4,5,6-tetrahydro-pyridine-3-carboxylic acid [2-fluoro-5-(6-oxo-6H-pyridazin-1-yl)-phenyl]-amide], for which the pIC50 turned out to be 5.74.

`Cc1cc(F)c(-c2cc(C)n(CCO)n2)cc1NC(=O)C1=CN(C)C(=O)C[C@H]1c1ccc(F)cc1` [Compound 148, (S)-4-(4-Fluoro-phenyl)-1-methyl-6-oxo-1,4,5,6-tetrahydro-pyridine-3-carboxylic acid {4-fluoro-5-[1-(2-hydroxy-ethyl)-5-methyl-1H-pyrazol-3-yl]-2-methyl-phenyl}-amide] displayed a pIC50 of 7.41.

For the origin of these results see patent US8163929B2, “Dihydropyridone amides as P2X7 modulators” (Roche Palo Alto LLC, priority 2008, dated 2012).
